Laboratory results taken from US8143257B2, “Substituted phenols as active agents inhibiting VEGF production” (PTC Therapeutics, Inc., priority 2004, dated 2012).
Read-outs that look alike come from different tables or passages of the source.

Test system: hypoxia-inducible endogenous VEGF expression
Test: Assay to evaluate effect on hypoxia-inducible endogenous VEGF expression (VEGF ELISA, HeLa cells)
Format: cell-based
Conditions: read-out: ELISA EC50 (effective concentration required to lower the amount of VEGF translation by 50%)
Experimental: Assay to Evaluate Effect on Hypoxia-Inducible Endogenous VEGF Expression
The ability of the compounds of the invention to modulate hypoxia-inducible endogenous VEGF expression is analyzed as follows. VEGF protein levels are monitored by an ELISA assay (R&D Systems). Briefly, HeLa cells are cultured for 24-48 hours under hypoxic conditions (1% O2, 5% CO2, balanced with nitrogen) in the presence or absence of a compound of the invention. The conditioned media is then assayed by ELISA, and the concentration of VEGF is calculated from the standard ELISA curve of each assay.
A dose-response analysis is performed using the ELISA assay and conditions described above. A series of, e.g., seven different concentrations are analyzed. In parallel, a dose-response cytotoxicity assay is performed using Cell Titer Glo (Promega) under the same conditions as the ELISA to ensure that the inhibition of VEGF expression is not due to the cytotoxicity. Dose-response curves are plotted using percentage inhibition versus concentration of the compound, and EC50 and CC50 values are generated for each compound with the maximal inhibition set as 100% and the minimal inhibition as 0%.
The most preferred compounds of the invention are those with μM values of 3 or less.

[1] = Homo sapiens, HeLa cells cultured 24-48 hours under hypoxic conditions (1% O2, 5% CO2), VEGF in conditioned media by ELISA
[2] = HeLa cells cultured 24-48 hours under hypoxic conditions (1% O2, 5% CO2), VEGF in conditioned media by ELISA

Structure (SMILES)	EC50 [1] [µM]	also measured
O=C(Oc1cc2ccccc2cn1)N1CCN(c2ccccc2)CC1 [4-Phenyl-piperazine-1-carboxylic acid isoquinolin-3-yl ester]	> 30	–
NC(=O)C1(N2CCCCC2)CCN(C(=O)Oc2ccc3ccccc3c2Br)CC1 [4′-Carbamoyl-[1,4′]bipiperidinyl-1′-carboxylic acid 1-bromo-naphthalen-2-yl ester]	–	EC50 (Homo sapiens, HeLa): 6.54 µM
CCC(NC(=O)Oc1ccc2ccccc2c1)(C(F)(F)F)C(F)(F)F [(1,1-Bis-trifluoromethyl-propyl)-carbamic acid naphthalen-2-yl ester]	> 30	–
CCc1cccc(NC(=O)Oc2ccc3ccccc3c2)c1 [(3-Ethyl-phenyl)-carbamic acid naphthalen-2-yl ester]	> 30	–
CS(=O)(=O)Nc1c(OC(=O)Oc2ccc3ccccc3c2NS(C)(=O)=O)ccc2ccccc12 [Carbonic acid bis-(1-methanesulfonylamino-naphthalen-2-yl) ester]	4.3	–
O=C(NC1CCCCC1)Oc1ccccc1Br [Cyclohexyl-carbamic acid 2-bromo-phenyl ester]	> 30	–
O=C(NCC1CCCCC1)Oc1ccc2cc(Br)ccc2c1Br [Cyclohexylmethyl-carbamic acid 1,6-dibromo-naphthalen-2-yl ester]	> 30	–
O=C(NCC1CCCCC1)Oc1ccc2ccccc2c1Br [Cyclohexylmethyl-carbamic acid 1-bromo-naphthalen-2-yl ester]	> 30	–
CCN(CC)C(=O)Oc1ccc2ccccc2c1Br [Diethyl-carbamic acid 1-bromo-naphthalen-2-yl ester]	2	–
CN(C)C(=O)Oc1ccc2ccccc2c1Br [Dimethyl-carbamic acid 1-bromo-naphthalen-2-yl ester]	–	EC50 (Homo sapiens, HeLa): 4 µM
CN(C)C(=O)Oc1ccc2cc(Br)ccc2c1 [Dimethyl-carbamic acid 6-bromo-naphthalen-2-yl ester]	–	EC50 (Homo sapiens, HeLa): > 10 µM
CN(C(=O)Oc1ccc2cc(Br)ccc2c1)c1ccccc1 [Methyl-phenyl-carbamic acid 6-bromo-naphthalen-2-yl ester]	–	EC50 (Homo sapiens, HeLa): > 10 µM
CN(C(=O)Oc1ccc2ccccc2c1)c1ccccc1 [Methyl-phenyl-carbamic acid naphthalen-2-yl ester]	–	EC50 (Homo sapiens, HeLa): > 10 µM
O=C(Oc1ccc2cc(Br)ccc2c1Br)N1CCOCC1 [Morpholine-4-carboxylic acid 1,6-dibromo-naphthalen-2-yl ester]	> 30	–
O=C(Oc1ccc2ccccc2c1Br)N1CCOCC1 [Morpholine-4-carboxylic acid 1-bromo-naphthalen-2-yl ester]	0.999	–
O=C(Oc1ccc2cc(Br)ccc2c1)N1CCOCC1 [Morpholine-4-carboxylic acid 6-bromo-naphthalen-2-yl ester]	> 10	–
CS(=O)(=O)Nc1c(O)ccc2ccccc12 [N-(2-Hydroxy-naphthalen-1-yl)-methanesulfonamide]	> 5	–
O=C(Oc1ccc2cc(Br)ccc2c1Br)N1CCCCC1 [Piperidine-1-carboxylic acid 1,6-dibromo-naphthalen-2-yl ester]	> 30	–
O=C(Oc1ccc2ccccc2c1Br)N1CCCCC1 [Piperidine-1-carboxylic acid 1-bromo-naphthalen-2-yl ester]	0.27	–
CS(=O)(=O)Nc1c(OC(=O)N2CCCCC2)ccc2ccccc12 [Piperidine-1-carboxylic acid 1-methanesulfonylamino-naphthalen-2-yl ester]	> 5	–
O=C(Oc1cc(Cl)c(Cl)cc1Cl)N1CCCCC1 [Piperidine-1-carboxylic acid 2,4,5-trichloro-phenyl ester]	18.2	–
O=C(Oc1c(Cl)cc(Cl)cc1Cl)N1CCCCC1 [Piperidine-1-carboxylic acid 2,4,6-trichloro-phenyl ester]	> 30	–
O=C(Oc1ccccc1Br)N1CCCCC1 [Piperidine-1-carboxylic acid 2-bromo-phenyl ester]	> 30	–
O=C(Oc1ccccc1Br)N1CCCC1 [Pyrrolidine-1-carboxylic acid 2-bromo-phenyl ester]	–	EC50 [2]: > 30 µM
Cc1ccc2cc(OC(=O)N3CCCC3)ccc2n1 [Pyrrolidine-1-carboxylic acid 2-methyl-quinolin-6-yl ester]	–	EC50 [2]: > 30 µM

More lines, main results first:

EC50 [1] [µM]	Structure (SMILES)	also measured
> 30	Cc1ccc2cc(OC(=O)N3CCCCC3)ccc2n1 [Piperidine-1-carboxylic acid 2-methyl-quinolin-6-yl ester]	–
2.22	O=C(Oc1ncc2ccccc2c1Cl)N1CCCCC1 [Piperidine-1-carboxylic acid 4-chloro-isoquinolin-3-yl ester]	–
> 10	O=C(Oc1ccc2cc(Br)ccc2c1)N1CCCCC1 [Piperidine-1-carboxylic acid 6-bromo-naphthalen-2-yl ester]	–
> 10	O=C(Nc1ccc2ccccc2c1Br)N1CCCCC1 [Piperidine-1-carboxylic acid (1-bromo-naphthalen-2-yl)-amide]	–
> 10	O=C(Nc1ccc2ccccc2c1Cl)N1CCCCC1 [Piperidine-1-carboxylic acid (1-chloro-naphthalen-2-yl)-amide]	–
> 30	O=C(Oc1cc2ccccc2cn1)N1CCCCC1 [Piperidine-1-carboxylic acid isoquinolin-3-yl ester]	–
> 10	O=C(Oc1ccc2ccccc2c1)N1CCCCC1 [Piperidine-1-carboxylic acid naphthalen-2-yl ester]	–
> 10	O=C(Nc1ccc2ccccc2c1)N1CCCCC1 [Piperidine-1-carboxylic acid naphthalen-2-ylamide]	–
> 30	CC(=O)c1c(OC(=O)N2CCCC2)ccc2ccccc12 [Pyrrolidine-1-carboxylic acid 1-acetyl-naphthalen-2-yl ester]	–
> 30	O=C(Oc1cc(Cl)c(Cl)cc1Cl)N1CCCC1 [Pyrrolidine-1-carboxylic acid 2,4,5-trichloro-phenyl ester]	–
23	O=C(Oc1c(Cl)cc(Cl)cc1Cl)N1CCCC1 [Pyrrolidine-1-carboxylic acid 2,4,6-trichloro-phenyl ester]	–
> 30	Cc1ccc(OC(=O)N2CCCC2)c(Br)c1 [Pyrrolidine-1-carboxylic acid 2-bromo-4-methyl-phenyl ester]	–
> 30	O=C(Oc1cc2ccccc2cn1)N1CCCC1 [Pyrrolidine-1-carboxylic acid isoquinolin-3-yl ester]	–
